# Laboratory results from PubChem BioAssay AID1963440 (Molecular Pharmacology Branch, DTP, NCI, 2024).
# pIC50: −log10 of the molar value. Several values for one entry are separate records, joined by “and”; a condition that tells them apart may be missing. Identical values can stand only once.
# Test system: NCI-H1417 complex spheroids, growth % test/control
# Assay: Anticancer human tumor NCI-H1417 cell line growth inhibition [Asc];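 also: spheroids exposed to compounds for 7 days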;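 as to viability, T/C: 100% = DMSO vehicle control wells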
# Conditions: for viability, T/C: stronger effect = lower value
# In short: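 Tumor cells were grown as complex spheroids with human endothelial cells (HUVEC) and human mesenchymal stem cells as stroma. Agents were tested alone and in combination, in half-log steps down from the clinical Cmax, or from 10 microM where Cmax was unknown.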
structure (smiles),measurement,setting,value
O=C(c1ccc(F)c(F)c1Nc1ccc(I)cc1F)N1CC(O)([C@@H]2CCCCN2)C1 + Cc1c(S(C)(=O)=O)c(-c2cc(F)cc(N3CCN(c4ccc(NS(=O)(=O)c5ccc(NC(CCN6CCC(C(=O)OCCCP(=O)(O)O)CC6)CSc6ccccc6)c(S(=O)(=O)C(F)(F)F)c5)cc4)CC3)c2)c(-c2ccc(Cl)cc2)n1C(C)C,pIC50,"curve of first compound, second compound 0.1 µM",< 6.00
same,pIC50,"curve of first compound, second compound 0.316 µM",> 8.50
same,pIC50,"curve of first compound, second compound 1 µM",> 8.50
same,pIC50,"curve of first compound, second compound 3.16 µM",> 8.50
same,pIC50,"curve of first compound, second compound 10 µM",> 8.50
same,"viability, T/C","second compound 0.1 µM, first compound 0.00316 µM",84.2%
same,"viability, T/C","second compound 0.1 µM, first compound 0.01 µM",81.2%
same,"viability, T/C","second compound 0.1 µM, first compound 0.0316 µM",80.8%
same,"viability, T/C","second compound 0.1 µM, first compound 0.1 µM",83.7%
same,"viability, T/C","second compound 0.1 µM, first compound 0.316 µM",71.5%
same,"viability, T/C","second compound 0.1 µM, first compound 1 µM",59.1%
same,"viability, T/C","second compound 0.316 µM, first compound 0.00316 µM",46.5%
same,"viability, T/C","second compound 0.316 µM, first compound 0.01 µM",50.1%
same,"viability, T/C","second compound 0.316 µM, first compound 0.0316 µM",44.7%
same,"viability, T/C","second compound 0.316 µM, first compound 0.1 µM",37.9%
same,"viability, T/C","second compound 0.316 µM, first compound 0.316 µM",28.8%
same,"viability, T/C","second compound 0.316 µM, first compound 1 µM",33.4%
same,"viability, T/C","second compound 1 µM, first compound 0.00316 µM",13.9%
same,"viability, T/C","second compound 1 µM, first compound 0.01 µM",11.9%
same,"viability, T/C","second compound 1 µM, first compound 0.0316 µM",10.4%
same,"viability, T/C","second compound 1 µM, first compound 0.1 µM",5.1%
same,"viability, T/C","second compound 1 µM, first compound 0.316 µM",2.22%
same,"viability, T/C","second compound 1 µM, first compound 1 µM",2.04%
same,"viability, T/C","second compound 3.16 µM, first compound 0.00316 µM",2.87%
same,"viability, T/C","second compound 3.16 µM, first compound 0.01 µM",2.41%
same,"viability, T/C","second compound 3.16 µM, first compound 0.0316 µM",2.22%
same,"viability, T/C","second compound 3.16 µM, first compound 0.1 µM",0.97%
same,"viability, T/C","second compound 3.16 µM, first compound 0.316 µM",0.48%
same,"viability, T/C","second compound 3.16 µM, first compound 1 µM",0.27%
same,"viability, T/C","second compound 10 µM, first compound 0.00316 µM",2.15%
same,"viability, T/C","second compound 10 µM, first compound 0.01 µM",1.85%
same,"viability, T/C","second compound 10 µM, first compound 0.0316 µM",1.55%
same,"viability, T/C","second compound 10 µM, first compound 0.1 µM",0.9%
same,"viability, T/C","second compound 10 µM, first compound 0.316 µM",1.3%
same,"viability, T/C","second compound 10 µM, first compound 1 µM",0.32%
NC1CCC(NC2CC2c2ccccc2)CC1 (configuration not stated) + CCN1C(C(=O)NC23CCC(C(=O)O)(CC2)CC3)C(c2cccc(Cl)c2F)C2(C(=O)Nc3cc(Cl)ccc32)C12CCCCC2,pIC50,"curve of first compound, second compound 0.03 µM",< 7.00
same,pIC50,"curve of first compound, second compound 0.0949 µM",< 7.00
same,pIC50,"curve of first compound, second compound 0.3 µM",< 7.00
same,pIC50,"curve of first compound, second compound 0.949 µM",< 7.00
same,pIC50,"curve of first compound, second compound 3 µM",< 7.00
same,"viability, T/C","second compound 0.03 µM, first compound 0.000316 µM",86%
same,"viability, T/C","second compound 0.03 µM, first compound 0.001 µM",73.9%
same,"viability, T/C","second compound 0.03 µM, first compound 0.00316 µM",74.5%
same,"viability, T/C","second compound 0.03 µM, first compound 0.01 µM",71.3%
same,"viability, T/C","second compound 0.03 µM, first compound 0.0316 µM",78.6%
same,"viability, T/C","second compound 0.03 µM, first compound 0.1 µM",73.1%
same,"viability, T/C","second compound 0.0949 µM, first compound 0.000316 µM",80.5%
same,"viability, T/C","second compound 0.0949 µM, first compound 0.001 µM",78.3%
same,"viability, T/C","second compound 0.0949 µM, first compound 0.00316 µM",63.5%
same,"viability, T/C","second compound 0.0949 µM, first compound 0.01 µM",69.8%
same,"viability, T/C","second compound 0.0949 µM, first compound 0.0316 µM",73.1%
same,"viability, T/C","second compound 0.0949 µM, first compound 0.1 µM",66%
same,"viability, T/C","second compound 0.3 µM, first compound 0.000316 µM",79.7%
same,"viability, T/C","second compound 0.3 µM, first compound 0.001 µM",64.8%
same,"viability, T/C","second compound 0.3 µM, first compound 0.00316 µM",65%
same,"viability, T/C","second compound 0.3 µM, first compound 0.01 µM",61%
same,"viability, T/C","second compound 0.3 µM, first compound 0.0316 µM",63.8%
same,"viability, T/C","second compound 0.3 µM, first compound 0.1 µM",62.5%
same,"viability, T/C","second compound 0.949 µM, first compound 0.000316 µM",78.3%
same,"viability, T/C","second compound 0.949 µM, first compound 0.001 µM",64.9%
same,"viability, T/C","second compound 0.949 µM, first compound 0.00316 µM",67.6%
same,"viability, T/C","second compound 0.949 µM, first compound 0.01 µM",60.7%
same,"viability, T/C","second compound 0.949 µM, first compound 0.0316 µM",60.2%
same,"viability, T/C","second compound 0.949 µM, first compound 0.1 µM",61.5%
same,"viability, T/C","second compound 3 µM, first compound 0.000316 µM",76.9%
same,"viability, T/C","second compound 3 µM, first compound 0.001 µM",65.9%
same,"viability, T/C","second compound 3 µM, first compound 0.00316 µM",62.4%
same,"viability, T/C","second compound 3 µM, first compound 0.01 µM",59.2%
same,"viability, T/C","second compound 3 µM, first compound 0.0316 µM",55.3%
same,"viability, T/C","second compound 3 µM, first compound 0.1 µM",67.5%
C=C(F)C(=O)N1CCN(c2nc(OCC3CCCN3C)nc3c2CCN(c2cccc4cccc(Cl)c24)C3)CC1CC#N (configuration not stated),"viability, T/C",compound 0.0316 µM,98.9% and 103% and 94.2%
same,"viability, T/C",compound 0.1 µM,106% and 101% and 88%
same,"viability, T/C",compound 0.316 µM,96.4% and 99.8% and 99.7%
same,"viability, T/C",compound 1 µM,90.7% and 84.8% and 90.3%
same,"viability, T/C",compound 3.16 µM,59.8% and 57.5% and 74.3%
same,"viability, T/C",compound 10 µM,0.26% and 0.27% and 0.31%
same,pIC50,curve of compound,5.42 and 5.44 and 5.34
